“Also recorded” adds a separate entry of the source.
What was measured:
[1] = Accelerated stability test, chemical stability by HPLC; format: physicochemical; conditions: for remaining at 720 h: cosmetic formulation F1, after 30 days (1 month) at 45 °C
[2] = test system: B16F10 melanoma cells; test: Anti-melanogenic assay (melanin content) in B16F10 cells; format: cell-based, Murine; conditions: mean ± SD (n = 3)
Protocol: (§1) Murine melanoma B16F10 cells (obtained from DS Pharma Biomedical, Japan) were cultivated in Dulbecco's Modified Eagle Medium (DMEM), a liquid medium supplemented with 10% fetal bovine serum (FBS) and 1% penicillin/streptomycin. The cells were incubated at a temperature of 37 °C within a controlled humidified environment containing 5% CO2. To facilitate subculture, the cells were detached from the culture flask using trypsin solution. Subsequently, the cells were subjected to staining with trypan blue solution and quantified using a hemocytometer for further analysis. The final concentration of DMSO was 0.1% for all experiments.
Murine melanoma B16F10 cells were gently rinsed with phosphate-buffered saline (PBS) and detached from the cell tissue culture dish using trypsin. The cells were subsequently seeded in 24-well culture plates at a density of 5 × 10^4 cells per well and allowed to incubate for 24 h before being subjected to treatment with the experimental samples. Arbutin was used as a positive control. Following the treatment, the cells were further incubated for an additional 72 h, and the absorbance was measured at 510 nm using a microplate reader. Melanin production was expressed as a percentage relative to the control cells treated with DMSO. All experiments were conducted in triplicate. The IC50 value was calculated. The percentage of total melanin content was determined using the following equation: %Totalmelanincontent=Abstreated cells-Absblank of treated cells/Abscontrol-Absblank of control×100

[3] = test system: B16F10 melanoma cells; test: Cytotoxicity assay (MTT) in B16F10 cells; format: cell-based, Murine; conditions: for Cytotoxicity: B16F10 melanoma cells, 72 h
Protocol: as §1
Cytotoxicity was assessed through the utilization of the MTT assay. The cell culture was initiated in 24-well plates, with a seeding density of 5 × 10^4 cells per well. After treatment with samples for 72 h, 10 µL of MTT solution (5 mg/mL in PBS) were added to each well and incubated for additional 3 h. Then, supernatant was removed and DMSO (250 µL) was added to dissolve the formed formazan crystals. The absorbance was measured at 570 nm using a microplate reader. Cells treated solely with DMSO served as the control. All experiments were conducted in triplicate. The percentage of cell viability was determined using the following calculation: %Cellviability=Abstreated cells-Absblank of treated cells/Abscontrol-Absblank of control×100

[4] = test system: melanocytes; parameters: method as in Tang et al. [15]; conditions: ref Tang et al. [15]; cited from earlier work
[5] = Mus musculus, B16-F10, 72 h treatment

Content in formulation F1 ([1]; Day 1, HPLC) [%w/w] | Content in formulation F1 ([1]; Day 30, 45 °C, HPLC) [%w/w] | %Remaining in formulation F1 ([1]; after 30 days (1 month) at 45 °C) [%] | remaining at 720 h [1] [%] | IC50 [2, 5] [µM] | Compound | Cytotoxicity [3] [µM] | Cytotoxicity (in words) ([3]; B16F10 cells, b13: 72 h, concentrations as high as 1000 µM) | Effect on melanin production and melanocyte growth [4] | IC50 ([2]; 72 h treatment) [µM]
0.1991 ± 0.0004 | 0.1940 ± 0.0057 | 97.44 | > 90 | 807.6 ± 2.9 | OC[C@H]1O[C@@H](Oc2ccc(O)cc2)[C@H](O)[C@@H](O)[C@@H]1O [Arbutin] | > 1000 |  |  | 
0.0050 ± 0.0005 | 0.0048 ± 0.0003 |  | > 90 | 23 ± 1.3 | C[C@@H]1O[C@@H](Oc2cc(O)c3c(=O)c(O)c(-c4ccc(O)cc4)oc3c2)[C@H](O)[C@H](O)[C@H]1O [Compound 3, kaempferol-7-O-α-L-rhamnopyranoside] | > 1000 | absence of discernible cytotoxicity; also recorded: no significant toxicity was observed |  | 
 |  |  |  | > 200 | CC1OC(Oc2cc(O)c3c(=O)c(OC4OC(CO)C(O)C(O)C4O)c(-c4ccc(O)cc4)oc3c2)C(O)C(O)C1O [Compound 4, kaempferol-3-O-β-D-glucopyranosyl-7-O-α-L-rhamnopyranoside] | > 1000 |  |  | 
 |  |  |  |  | O=c1c(O)c(-c2ccc(O)cc2)oc2cc(O)cc(O)c12 [kaempferol] |  |  | induce melanin production and melanocyte growth | 
 |  |  |  |  | Quercetin-3-O-rhamnoside [Compound 1] |  |  |  | 135 ± 2.1

Reference: article PMC10716148 (Scientific Reports, 2023)
